Target: recombinant mTOR (FLAG-tagged, residues 1362-2549) (Homo sapiens, UniProt P42345)
Assay: In vitro mTOR kinase assay (Test (a), AlphaScreen)
Assay type: biochemical
Conditions: ATP 20 μM, read-out: Test (a): IC50 versus mTOR kinase
Procedure, shortened: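 AlphaScreen read-out: a phospho-T389 p70 S6K antibody on acceptor beads captures the phosphorylated biotin-peptide on donor beads, with signal loss indicating inhibition.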

Chain of recombinant mTOR (FLAG-tagged, residues 1362-2549) (P42345 1362-2549): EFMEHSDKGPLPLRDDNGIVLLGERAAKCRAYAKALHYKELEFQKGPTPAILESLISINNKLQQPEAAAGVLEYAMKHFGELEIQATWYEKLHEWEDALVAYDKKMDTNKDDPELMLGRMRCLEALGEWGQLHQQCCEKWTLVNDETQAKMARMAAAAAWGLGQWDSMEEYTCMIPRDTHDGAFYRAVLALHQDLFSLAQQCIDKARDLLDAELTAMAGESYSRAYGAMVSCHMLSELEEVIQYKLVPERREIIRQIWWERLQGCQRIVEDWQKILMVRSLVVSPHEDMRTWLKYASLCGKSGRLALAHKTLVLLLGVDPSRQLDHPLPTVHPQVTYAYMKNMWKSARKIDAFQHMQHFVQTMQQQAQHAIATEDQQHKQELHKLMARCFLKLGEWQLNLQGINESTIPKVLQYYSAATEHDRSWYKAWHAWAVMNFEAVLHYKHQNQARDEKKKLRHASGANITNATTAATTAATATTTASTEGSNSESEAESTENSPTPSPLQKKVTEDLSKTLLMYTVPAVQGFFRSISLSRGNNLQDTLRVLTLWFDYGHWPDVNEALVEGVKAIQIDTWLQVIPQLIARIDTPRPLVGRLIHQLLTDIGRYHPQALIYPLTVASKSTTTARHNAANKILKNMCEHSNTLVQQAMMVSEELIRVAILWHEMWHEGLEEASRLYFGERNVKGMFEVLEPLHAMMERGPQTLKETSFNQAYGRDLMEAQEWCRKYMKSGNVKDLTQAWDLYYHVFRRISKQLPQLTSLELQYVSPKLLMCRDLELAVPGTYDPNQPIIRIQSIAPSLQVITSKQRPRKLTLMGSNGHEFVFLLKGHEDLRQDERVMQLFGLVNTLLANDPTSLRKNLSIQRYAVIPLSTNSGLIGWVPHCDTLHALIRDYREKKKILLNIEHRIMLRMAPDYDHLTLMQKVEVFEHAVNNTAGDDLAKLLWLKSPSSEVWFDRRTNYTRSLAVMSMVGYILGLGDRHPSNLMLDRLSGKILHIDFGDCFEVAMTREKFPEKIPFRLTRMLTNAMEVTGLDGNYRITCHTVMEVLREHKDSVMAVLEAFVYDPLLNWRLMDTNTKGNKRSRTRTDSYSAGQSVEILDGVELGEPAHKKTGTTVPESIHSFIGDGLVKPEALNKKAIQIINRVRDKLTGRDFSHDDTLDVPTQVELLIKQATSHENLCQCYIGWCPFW

SMILES	IC50 [nM]
C[C@H]1COCCN1c1cc(CS(C)(=O)=O)nc(-c2cnc(NC(=O)NC3CC3)s2)n1 [Example 46i, 3-cyclopropyl-1-[5-[4-[(3S)-3-methylmorpholin-4-yl]-6-(methylsulfonylmethyl)pyrimidin-2-yl]-1,3-thiazol-2-yl]urea]	97
CNC(=O)Nc1ncc(-c2nc(N3CCOC[C@@H]3C)cc(C(C)(C)S(C)(=O)=O)n2)s1 [Example 47, 3-Methyl-1-[5-[4-[(3S)-3-methylmorpholin-4-yl]-6-(2-methylsulfonylpropan-2-yl)pyrimidin-2-yl]-1,3-thiazol-2-yl]urea]	260
C[C@H]1COCCN1c1cc(C(C)(C)S(C)(=O)=O)nc(-c2cnc(NC(=O)NC3CC3)s2)n1 [Example 47a, 3-cyclopropyl-1-[5-[4-[(3S)-3-methylmorpholin-4-yl]-6-(2-methylsulfonylpropan-2-yl)pyrimidin-2-yl]-1,3-thiazol-2-yl]urea]	1200
C[C@H]1COCCN1c1cc(C(C)(C)S(C)(=O)=O)nc(-c2cnc(NC(=O)Nc3cnn(C)c3)s2)n1 [Example 47b, 1-[5-[4-[(3S)-3-methylmorpholin-4-yl]-6-(2-methylsulfonylpropan-2-yl)pyrimidin-2-yl]-1,3-thiazol-2-yl]-3-(1-methylpyrazol-4-yl)urea]	410
C[C@H]1COCCN1c1cc(C(C)(C)S(C)(=O)=O)nc(-c2cnc(NC(=O)NCc3cnn(C)c3)s2)n1 [Example 47c, 1-[5-[4-[(3S)-3-methylmorpholin-4-yl]-6-(2-methylsulfonylpropan-2-yl)pyrimidin-2-yl]-1,3-thiazol-2-yl]-3-[(1-methylpyrazol-4-yl)methyl]urea]	1400
CCNC(=O)Nc1ncc(-c2nc(N3CCOC[C@@H]3C)cc(C(C)(C)S(C)(=O)=O)n2)s1 [Example 47d, 1-ethyl-3-[5-[4-[(3S)-3-methylmorpholin-4-yl]-6-(2-methylsulfonylpropan-2-yl)pyrimidin-2-yl]-1,3-thiazol-2-yl]urea]	970
C[C@H]1COCCN1c1cc(CNC2CC2)nc(-c2ccc(NC(=O)NC3CC3)cc2)n1 [Example 49, 3-Cyclopropyl-1-[4-[4-[(cyclopropylamino)methyl]-6-[(3S)-3-methylmorpholin-4-yl]pyrimidin-2-yl]phenyl]urea]	33
C[C@H]1COCCN1c1cc(CN(C)CCO)nc(-c2ccc(NC(=O)NC3CC3)cc2)n1 [Example 49a, 3-cyclopropyl-1-[4-[4-[(2-hydroxyethyl-methyl-amino)methyl]-6-[(3S)-3-methylmorpholin-4-yl]pyrimidin-2-yl]phenyl]urea]	150
C[C@H]1COCCN1c1cc(CN2CCN(C)CC2)nc(-c2ccc(NC(=O)NC3CC3)cc2)n1 [Example 49b, 3-cyclopropyl-1-[4-[4-[(3S)-3-methylmorpholin-4-yl]-6-[(4-methylpiperazin-1-yl)methyl]pyrimidin-2-yl]phenyl]urea]	14
COCCNCc1cc(N2CCOC[C@@H]2C)nc(-c2ccc(NC(=O)NC3CC3)cc2)n1 [Example 49c, 3-cyclopropyl-1-[4-[4-[(2-methoxyethylamino)methyl]-6-[(3S)-3-methylmorpholin-4-yl]pyrimidin-2-yl]phenyl]urea]	40
C[C@H]1COCCN1c1cc(CNCCCN(C)C)nc(-c2ccc(NC(=O)NC3CC3)cc2)n1 [Example 49e, 3-cyclopropyl-1-[4-[4-[(3-dimethylaminopropylamino)methyl]-6-[(3S)-3-methylmorpholin-4-yl]pyrimidin-2-yl]phenyl]urea]	32
C[C@H]1COCCN1c1cc(CN2CCOCC2)nc(-c2ccc(NC(=O)NC3CC3)cc2)n1 [Example 49f, 3-cyclopropyl-1-[4-[4-[(3S)-3-methylmorpholin-4-yl]-6-(morpholin-4-ylmethyl)pyrimidin-2-yl]phenyl]urea]	200
C[C@H]1COCCN1c1cc(CNCCN(C)C)nc(-c2ccc(NC(=O)NC3CC3)cc2)n1 [Example 49g, 3-cyclopropyl-1-[4-[4-[(2-dimethylaminoethylamino)methyl]-6-[(3S)-3-methylmorpholin-4-yl]pyrimidin-2-yl]phenyl]urea]	87
C[C@H]1COCCN1c1cc(CN2CCCN(C)CC2)nc(-c2ccc(NC(=O)NC3CC3)cc2)n1 [Example 49h, 3-cyclopropyl-1-[4-[4-[(4-methyl-1,4-diazepan-1-yl)methyl]-6-[(3S)-3-methylmorpholin-4-yl]pyrimidin-2-yl]phenyl]urea]	180
C[C@H]1COCCN1c1cc(CNC(C)(C)CO)nc(-c2ccc(NC(=O)NC3CC3)cc2)n1 [Example 49i, 3-cyclopropyl-1-[4-[4-[[(1-hydroxy-2-methyl-propan-2-yl)amino]methyl]-6-[(3S)-3-methylmorpholin-4-yl]pyrimidin-2-yl]phenyl]urea]	16
C[C@H]1COCCN1c1cc(CN2CC(O)C2)nc(-c2ccc(NC(=O)NC3CC3)cc2)n1 [Example 49k, 3-cyclopropyl-1-[4-[4-[(3-hydroxyazetidin-1-yl)methyl]-6-[(3S)-3-methylmorpholin-4-yl]pyrimidin-2-yl]phenyl]urea]	14
C[C@H]1COCCN1Cc1cc(N2CCOC[C@@H]2C)nc(-c2ccc(NC(=O)NC3CC3)cc2)n1 [Example 49l, 3-cyclopropyl-1-[4-[4-[(3S)-3-methylmorpholin-4-yl]-6-[[(3S)-3-methylmorpholin-4-yl]methyl]pyrimidin-2-yl]phenyl]urea]	1600
C[C@H]1COCCN1c1cc(CN2CCS(=O)(=O)CC2)nc(-c2ccc(NC(=O)NC3CC3)cc2)n1 [Example 50, 3-Cyclopropyl-1-[4-[4-[(1,1-dioxo-1,4-thiazinan-4-yl)methyl]-6-[(3S)-3-methylmorpholin-4-yl]pyrimidin-2-yl]phenyl]urea]	1.6
C[C@H]1COCCN1c1cc(CN2CCN(C)CC2)nc(-c2ccc(NC(=O)NCc3cnn(C)c3)cc2)n1 [Example 52, 1-[4-[4-[(3S)-3-Methylmorpholin-4-yl]-6-[(4-methylpiperazin-1-yl)methyl]pyrimidin-2-yl]phenyl]-3-[(1-methylpyrazol-4-yl)methyl]urea]	1400
C[C@H]1COCCN1c1cc(CNC2CC2)nc(-c2ccc(NC(=O)NCc3cnn(C)c3)cc2)n1 [Example 52a, 1-[4-[4-[(cyclopropylamino)methyl]-6-[(3S)-3-methylmorpholin-4-yl]pyrimidin-2-yl]phenyl]-3-[(1-methylpyrazol-4-yl)methyl]urea]	330
C[C@H]1COCCN1c1cc(CN(C)C2CC2)nc(-c2ccc(NC(=O)NCc3cnn(C)c3)cc2)n1 [Example 52b, 1-[4-[4-[(cyclopropyl-methyl-amino)methyl]-6-[(3S)-3-methylmorpholin-4-yl]pyrimidin-2-yl]phenyl]-3-[(1-methylpyrazol-4-yl)methyl]urea]	570
CC(=O)NCCS(=O)(=O)Cc1cc(N2CCOC[C@@H]2C)nc(-c2ccc(NC(=O)NCc3cnn(C)c3)cc2)n1 [Example 53, N-[2-[[6-[(3S)-3-methylmorpholin-4-yl]-2-[4-[(1-methylpyrazol-4-yl)methylcarbamoylamino]phenyl]pyrimidin-4-yl]methylsulfonyl]ethyl]acetamide]	640
C[C@H]1COCCN1c1cc(CS(=O)(=O)CC(N)=O)nc(-c2ccc(NC(=O)NCc3cnn(C)c3)cc2)n1 [Example 53a]	600
C[C@H]1COCCN1c1cc(CS(=O)(=O)c2ccncc2)nc(-c2ccc(NC(=O)NCc3cnn(C)c3)cc2)n1 [Example 53c, 1-[4-[4-[(3S)-3-methylmorpholin-4-yl]-6-(pyridin-4-ylsulfonylmethyl)pyrimidin-2-yl]phenyl]-3-[(1-methylpyrazol-4-yl)methyl]urea]	30
C[C@H]1COCCN1c1cc(CS(=O)(=O)C2CC2)nc(-c2ccc(NC(=O)NC3CC3)cc2)n1 [Example 55, 3-Cyclopropyl-1-[4-[4-(cyclopropylsulfonylmethyl)-6-[(3S)-3-methylmorpholin-4-yl]pyrimidin-2-yl]phenyl]urea]	62
C[C@H]1COCCN1c1cc(C(C)(C)S(=O)(=O)C2CC2)nc(-c2ccc(NC(=O)NC3CC3)cc2)n1 [Example 56, 3-Cyclopropyl-1-[4-[4-(2-cyclopropylsulfonylpropan-2-yl)-6-[(3S)-3-methylmorpholin-4-yl]pyrimidin-2-yl]phenyl]urea]	2400
CCNC(=O)Nc1ccc(-c2nc(CS(=O)(=O)c3ccccn3)cc(N3CCOC[C@@H]3C)n2)cc1 [Example 71, 3-Ethyl-1-[4-[4-[(3S)-3-methylmorpholin-4-yl]-6-(pyridin-2-ylsulfonylmethyl)pyrimidin-2-yl]phenyl]urea]	32

Reference: patent US7750003B2, “Compounds-943” (AstraZeneca AB, priority 2006, dated 2010)
